The text below walks through data of article PMC6315298 (2018).

The assay concerns Mango-II (RNA, aptamer) GCGUACGAAGGAGAGGAGAGGAAGAGGAGAGUACGC
As to the kind of experiment: fluorescence binding.

`CN1C=CC(=C/C=C/c2sc3ccccc3[n+]2CC(=O)NCCOCCOCCOCCNC(=O)CCCC[C@@H]2SC[C@@H]3NC(=O)N[C@@H]32)c2ccccc21`: the equilibrium dissociation constant (Kd) is ~ 1.4 nM.

For `CN1C=CC(=Cc2sc3ccccc3[n+]2CC(=O)NCCOCCOCCOCCNC(=O)CCCC[C@@H]2SC[C@@H]3NC(=O)N[C@@H]32)c2ccccc21`, the Kd is given as 1.1 nM.

What is called Kd is the constant that tells how readily two partners part at equilibrium. A higher Kd goes with weaker binding.
